Measured values taken from patent US11109593B2, “Isoxazolin-5-one derivative and herbicide containing same as active ingredient” (HOKKO CHEMICAL INDUSTRY CO., LTD., priority 2017, dated 2021).

Key:
Type in all cases: in vivo
Amaranthus viridis [1] = experiment: Test Example 3: herbicidal effect test by treatment of dry field farming soil (one day after seeding); conditions: 120 g/10a active ingredient, evaluated 14 days after treatment
In short: (§1)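 Pre-emergence soil treatment: alluvial dry-field soil, 20 seeds per species mixed into top 1 cm, emulsion diluted in water sprayed one day after seeding at 100 L per 10 ares (120 g active ingredient per 10 ares). Duplicate pots; herbicidal rate (%) from dry weight vs untreated at 14 days.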

southern crabgrass [2] = experiment: as above; conditions: 120 g/10a active ingredient, evaluated 14 days after treatment
In short: as §1

Chenopodium album [3] = experiment: as above; conditions: 120 g/10a active ingredient, evaluated 14 days after treatment
In short: as §1

Echinochloa crus-galli [4] = experiment: as above; conditions: 120 g/10a active ingredient, evaluated 14 days after treatment
In short: as §1

Scirpus juncoides [5] = experiment: Test Example 1: herbicidal effect test by treatment of rice paddy soil (immediately after seeding); conditions: 120 g/10a active ingredient, dry weight vs untreated area, 14 days after treatment
In short: (§2)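 Flooded paddy pot test in a glass greenhouse: emulsion diluted in water, dropped at 120 g a.i. per 10 ares just after sowing, water depth kept about 3 cm. Dry-weight reduction relative to untreated plants is scored at 14 days.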

Echinochloa crus-galli [6] = experiment: as above; conditions: 120 g/10a active ingredient, dry weight vs untreated area, 14 days after treatment
In short: as §2

[7] = test system: broad leaf weeds (Lindernia pyxidaria and Monochoria vaginalis); experiment: as above; conditions: 120 g/10a active ingredient, dry weight vs untreated area, 14 days after treatment
In short: as §2

Amaranthus viridis [8] = experiment: Test Example 4: herbicidal effect test by treatment of leave and stem in dry field farming (seven days after seeding); conditions: 120 g/10a active ingredient; emulsion sprayed seven days after seeding; evaluated 14 days after treatment
Method: (§3) This test was conducted in a double system per one agent solution concentration area, and the herbicidal rates (%) were determined by the following equation (Math. 1) on 14 days after the treatment with the agents. Herbicidal Rate (%)={1-(Average Dry Weight (g) of Plant of Treated Area)/(Average Dry Weight (g) of Plant of Untreated Area)}×100 [Math. 1]
(§4) Herbicidal Effect Test by Treatment of Leave and Stem in Dry Field Farming
(§5) Pots with a size of 36 cm^2 were filled with a dry field farming soil (alluvium). The soil of the top layer of 1 cm and seeds of weeds, namely southern crabgrass, Echinochloa crus-galli, Chenopodium album and Amaranthus viridis, 20 seeds each, were evenly mixed, and the top layer was gently pressed. Emulsions prepared using the compounds in Table 6 below according to Formulation Example 5 were diluted with water seven days after seeding, and the water-diluted agent solutions were sprayed to the soil surfaces at a ratio of 100 liters per 10 ares. The converted amount of the applied active ingredient corresponded to 120 g per 10 ares. The herbicidal effects were evaluated by the same standard as that in Test Example 1 on 14 days after the treatment with the agents. […] The compound numbers in Table 6 are the same as those in Table 1 and Table 2 above.

southern crabgrass [9] = experiment: as above; conditions: 120 g/10a active ingredient; emulsion sprayed seven days after seeding; evaluated 14 days after treatment
Method: as §3, §4, §5

Chenopodium album [10] = experiment: as above; conditions: 120 g/10a active ingredient; emulsion sprayed seven days after seeding; evaluated 14 days after treatment
Method: as §3, §4, §5

Echinochloa crus-galli [11] = experiment: as above; conditions: 120 g/10a active ingredient; emulsion sprayed seven days after seeding; evaluated 14 days after treatment
Method: as §3, §4, §5

Scirpus juncoides [12] = experiment: Test Example 2: herbicidal effect test by treatment during growing period in paddy rice cultivation (seven days after seeding); conditions: 120 g/10a active ingredient, assessed 14 days after treatment, dry weight vs untreated area
In short: (§6)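 Paddy soil in Wagner pots with compound fertilizer, puddled; 30 seeds per species sown at 0–1 cm, flooded ~3 cm, greenhouse. Seven days after seeding, water-diluted emulsions were dropped into the water at 120 g active ingredient per 10 ares. Duplicate pots; herbicidal rate from dry weight versus untreated, 14 days after treatment.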

Echinochloa crus-galli [13] = experiment: as above; conditions: 120 g/10a active ingredient, assessed 14 days after treatment, dry weight vs untreated area
In short: as §6

[14] = test system: broad leaf weeds (Lindernia pyxidaria and Monochoria vaginalis); experiment: as above; conditions: 120 g/10a active ingredient, assessed 14 days after treatment, dry weight vs untreated area
In short: as §6

| SMILES | herbicidal rate, Amaranthus viridis (Amaranthus viridis [1]) [%] | herbicidal rate, southern crabgrass (southern crabgrass [2]) [%] | herbicidal rate, Chenopodium album (Chenopodium album [3]) [%] | herbicidal rate, Echinochloa crus-galli (Echinochloa crus-galli [4]) [%] | Herbicidal rate (%) Scirpus juncoides (Scirpus juncoides [5]) [%] | Herbicidal rate (%) Echinochloa crus-galli (Echinochloa crus-galli [6]) [%] | Herbicidal rate (%) Lindernia pyxidaria [7] [%] | Herbicidal rate (%) Monochoria vaginalis [7] [%] | herbicidal effect (herbicidal rate), Amaranthus viridis (Amaranthus viridis [8]) [%] | herbicidal effect (herbicidal rate), southern crabgrass (southern crabgrass [9]) [%] | herbicidal effect (herbicidal rate), Chenopodium album (Chenopodium album [10]) [%] | herbicidal effect (herbicidal rate), Echinochloa crus-galli (Echinochloa crus-galli [11]) [%] | Herbicidal rate (%) Scirpus juncoides (Scirpus juncoides [12]) [%] | Herbicidal rate (%) Echinochloa crus-galli (Echinochloa crus-galli [13]) [%] | Herbicidal rate (%) Lindernia pyxidaria [14] [%] | Herbicidal rate (%) Monochoria vaginalis [14] [%] |
| --- | --- | --- | --- | --- | --- | --- | --- | --- | --- | --- | --- | --- | --- | --- | --- | --- |
| CCC(C)Cn1oc(=O)c(Cc2ccccc2N(C(=O)OCc2ccccc2)S(=O)(=O)C(F)(F)F)c1C (single isomer, unassigned) [1-789 (TLC bottom)] | 70 | 60 | 80 | 90 | 90 | 100 | 90 | 90 | 60 | 50 | 40 | 50 | 90 | 100 | 60 | 90 |
| Cc1c(Cc2cc(F)ccc2NS(=O)(=O)C(F)(F)F)c(=O)on1CC(C)C [Compound 1-28] | 100 | 80 | 100 | 90 | 90 | 100 | 90 | 100 | 80 | 50 | 40 | 90 | 90 | 100 | 80 | 100 |
| Cc1c(Cc2cc(F)ccc2N(S(=O)(=O)C(F)(F)F)S(=O)(=O)C(F)(F)F)c(=O)on1CC(C)C [Compound 1-29] | 40 | 70 | 40 | 70 | 90 | 100 | 90 | 90 | 60 | 40 | 0 | 60 | 90 | 100 | 80 | 90 |
| Cc1c(Cc2cccc(Cl)c2NS(=O)(=O)C(F)(F)F)c(=O)on1C(C)C [Compound 1-33] | 0 | 70 | 40 | 90 | 100 | 80 | 90 | 90 | 0 | 40 | 40 | 90 | 80 | 60 | 60 | 60 |
| Cc1c(Cc2ccc(Cl)cc2NS(=O)(=O)C(F)(F)F)c(=O)on1C(C)C [Compound 1-37] | 0 | 40 | 40 | 70 | 90 | 60 | 80 | 40 | 40 | 40 | 80 | 90 | 0 | 40 | 40 | 40 |
| Cc1c(Cc2cc(Cl)ccc2NS(=O)(=O)C(F)(F)F)c(=O)on1C(C)C [Compound 1-41] | 0 | 90 | 50 | 90 | 100 | 100 | 100 | 100 | 60 | 90 | 90 | 90 | 60 | 90 | 90 | 80 |
| CCc1c(Cc2ccccc2NS(=O)(=O)C(F)(F)F)c(=O)on1C(C)C [Compound 1-63] | 40 | 90 | 40 | 90 | 100 | 90 | 100 | 100 | 40 | 60 | 60 | 90 | 90 | 80 | 80 | 90 |
